Measured values: PubChem BioAssay (NCI)
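Five compound concentrations were applied to cells in 96-well plates for 48 hours; endpoints were derived by simple linear interpolation of the resulting dose-response curve. TGI is the concentration that stops growth completely.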

Legend:
Experiment in all cases: NCI tumour cell line growth inhibition, 48 h
786-0 renal = system: 786-0 renal
A498 renal = system: A498 renal
A549 NSCLC = system: A549 NSCLC
ACHN renal = system: ACHN renal
BT-549 breast = system: BT-549 breast
CAKI-1 renal = system: CAKI-1 renal
CCRF-CEM leukemia = system: CCRF-CEM leukemia
DU-145 prostate = system: DU-145 prostate
EKVX NSCLC = system: EKVX NSCLC
HCC-2998 colon = system: HCC-2998 colon
HCT-116 colon = system: HCT-116 colon
HCT-15 colon = system: HCT-15 colon
HL-60(TB) leukemia = system: HL-60(TB) leukemia
HOP-62 NSCLC = system: HOP-62 NSCLC
HOP-92 NSCLC = system: HOP-92 NSCLC
HS 578T breast = system: HS 578T breast
HT29 colon = system: HT29 colon
IGROV1 ovarian = system: IGROV1 ovarian
K-562 leukemia = system: K-562 leukemia
KM12 colon = system: KM12 colon
LOX IMVI melanoma = system: LOX IMVI melanoma
M14 melanoma = system: M14 melanoma
MALME-3M melanoma = system: MALME-3M melanoma
MCF7 breast = system: MCF7 breast
MDA-MB-231 breast = system: MDA-MB-231 breast
MDA-MB-435 = system: MDA-MB-435
MDA-N = system: MDA-N
MOLT-4 leukemia = system: MOLT-4 leukemia
NCI-H23 lung = system: NCI-H23 lung
NCI-H460 lung = system: NCI-H460 lung
NCI-H522 lung = system: NCI-H522 lung
NCI/ADR-RES ovarian = system: NCI/ADR-RES ovarian
OVCAR-3 ovarian = system: OVCAR-3 ovarian
OVCAR-4 ovarian = system: OVCAR-4 ovarian
OVCAR-5 ovarian = system: OVCAR-5 ovarian
OVCAR-8 ovarian = system: OVCAR-8 ovarian
PC-3 prostate = system: PC-3 prostate
RPMI-8226 leukemia = system: RPMI-8226 leukemia
RXF 393 renal = system: RXF 393 renal
SF-268 CNS = system: SF-268 CNS
SF-295 CNS = system: SF-295 CNS
SK-MEL-2 melanoma = system: SK-MEL-2 melanoma
SK-MEL-28 melanoma = system: SK-MEL-28 melanoma
SK-OV-3 ovarian = system: SK-OV-3 ovarian
SN12C renal = system: SN12C renal
SNB-19 CNS = system: SNB-19 CNS
SNB-75 CNS = system: SNB-75 CNS
SW-620 colon = system: SW-620 colon
T-47D breast = system: T-47D breast
TK-10 renal = system: TK-10 renal
U251 CNS = system: U251 CNS
UACC-257 melanoma = system: UACC-257 melanoma
UACC-62 melanoma = system: UACC-62 melanoma
COLO 205 colon = system: COLO 205 colon
NCI-H226 lung = system: NCI-H226 lung
SF-539 CNS = system: SF-539 CNS
SK-MEL-5 melanoma = system: SK-MEL-5 melanoma
SR leukemia = system: SR leukemia
UO-31 renal = system: UO-31 renal

Measured: TGI

CCCCSC1=N/C(=C\c2ccc(N(C)C)cc2)C(NN)=N1
> 100 µM: 786-0 renal | A498 renal | A549 NSCLC | ACHN renal | BT-549 breast | CAKI-1 renal | CCRF-CEM leukemia | DU-145 prostate | EKVX NSCLC | HCC-2998 colon | HCT-116 colon | HCT-15 colon | HL-60(TB) leukemia | HOP-62 NSCLC | HOP-92 NSCLC | HS 578T breast | HT29 colon | IGROV1 ovarian | K-562 leukemia | KM12 colon | LOX IMVI melanoma | M14 melanoma | MALME-3M melanoma | MCF7 breast | MDA-MB-231 breast | MDA-MB-435 | MDA-N | MOLT-4 leukemia | NCI-H23 lung | NCI-H460 lung | NCI-H522 lung | NCI/ADR-RES ovarian | OVCAR-3 ovarian | OVCAR-4 ovarian | OVCAR-5 ovarian | OVCAR-8 ovarian | PC-3 prostate | RPMI-8226 leukemia | RXF 393 renal | SF-268 CNS | SF-295 CNS | SK-MEL-2 melanoma | SK-MEL-28 melanoma | SK-OV-3 ovarian | SN12C renal | SNB-19 CNS | SNB-75 CNS | SW-620 colon | T-47D breast | TK-10 renal | U251 CNS | UACC-257 melanoma | UACC-62 melanoma

O=C(Nc1cc2c(=O)oc3ccccc3c2oc1=O)c1cccnc1
> 100 µM: 786-0 renal | A549 NSCLC | ACHN renal | BT-549 breast | CAKI-1 renal | CCRF-CEM leukemia | COLO 205 colon | DU-145 prostate | EKVX NSCLC | HCC-2998 colon | HCT-116 colon | HCT-15 colon | HL-60(TB) leukemia | HOP-92 NSCLC | HT29 colon | IGROV1 ovarian | K-562 leukemia | KM12 colon | LOX IMVI melanoma | M14 melanoma | MALME-3M melanoma | MCF7 breast | MDA-MB-231 breast | MDA-MB-435 | MDA-N | MOLT-4 leukemia | NCI-H226 lung | NCI-H23 lung | NCI-H460 lung | NCI-H522 lung | NCI/ADR-RES ovarian | OVCAR-3 ovarian | OVCAR-4 ovarian | OVCAR-5 ovarian | OVCAR-8 ovarian | PC-3 prostate | RXF 393 renal | SF-295 CNS | SF-539 CNS | SK-MEL-2 melanoma | SK-MEL-28 melanoma | SK-MEL-5 melanoma | SK-OV-3 ovarian | SN12C renal | SNB-19 CNS | SNB-75 CNS | SR leukemia | SW-620 colon | T-47D breast | TK-10 renal | U251 CNS | UACC-257 melanoma | UACC-62 melanoma | UO-31 renal
